Measurements published in US20260335495A1, “SYNERGISTIC ACTIVITY OF NOVEL COMPOUNDS AGAINST PLANKTONIC AND BIOFILM CELLS OF CLINICALLY RELEVANT PATHOGENS” (priority 2021, published 2026).

Key:
[1] = test system: commonly encountered pathogens; settings: cited from earlier work
[2] = high concentrations, ALS for CVADs; cited from earlier work
[3] = test system: bacterial and fungal biofilms; test: Rapid eradication of 48-h-old biofilms within 2 h exposure; assay type: cell-based, bacterial and fungal strains; settings: at the MBEC alone, 48-h-old biofilm
Method: This example comprises performing biofilm growth as described above. After biofilm formation, control pegs (n=6) were removed and analyzed to determine the starting biofilm cell numbers via the drop dilution method. The 48-h old biofilms on the pegs were exposed to different concentrations of test antimicrobials, dissolved in an appropriate growth medium, for 2 hours to evaluate their efficacy alone and in combination. […] Following treatment, pegs were washed twice with sterile PBS, and the biofilm cells were dislodged into recovery medium and enumerated as described above.

[4] = test system: preformed biofilms of test pathogens; test: MBEC and FBEC index, 48 h old biofilms, summary over strains; assay type: cell-based, bacterial and fungal strains; settings: alone: 4% tetrasodium EDTA, 50% ethanol, 100 μg/mL chlorhexidine HCl, 24 hours
Method: The evaluation of the biofilm cultivation cell composition was evaluated using an MBEC Assay® biofilm inoculator, consisting of a polystyrene lid with 96 downward-protruding pegs and a corresponding base used to grow biofilms. A standardized inoculum was diluted in an appropriate biofilm growth medium to achieve a viable cell count of 1.5×10^6 CFU/mL of bacterial cells or 5×10^5 CFU/mL of fungal cells. Then, 150 μL of this inoculum was transferred into each appropriate well, and the peg lids were inserted into the microtiter plates. The plates were sealed with Parafilm and were incubated at optimum temperature for 48 h with slight rocking for bacteria and shaking at 200 rpm for fungal strains. After incubation, the peg lid was removed from the base and rinsed twice with sterile phosphate-buffered saline (PBS) for 2 min to remove loosely attached non-sessile cells. Before the antimicrobial challenge, the pegs in column 1 (n=8) were considered as the biofilm growth control; these pegs were removed from the lids, placed into 200 μL of recovery medium, and analyzed for starting biofilm cell numbers as described below. […] After the antimicrobial challenge, the pegs were rinsed twice with sterile PBS for 2 min and placed into a new 96-well plate containing 200 μL of recovery medium. The recovery plates were sealed with Parafilm, and biofilm cells were dislodged from the pegs by sonication for 30 min with a Branson 3510 bath sonicator. The biofilm cells in the recovery medium were serially diluted, and a drop dilution assay was performed to enumerate the viable cells.
In step (4), microtiter plates are incubated at 37 °C for 24 h. then (6), after incubation, the bacterial and fungal cells were dislodged from the pegs into the recovery medium described above.
Three 10-μL aliquots, for a total of 30 μL from each well of recovery medium, were spotted on MH agar plates and incubated for 24 hours at 37 °C. […] The FBEC determination is a modification of the FICI. […]

E. coli = settings: 40 mg/mL, locked for 21-25 h, catheter segments; cited from earlier work
[5] = 40 mg/mL solution (4% solution) in distilled water; cited from earlier work
[6] = test system: clinically relevant pathogens; settings: 4%; cited from earlier work
C. albicans = settings: 40 mg/mL, locked for 21-25 h, catheter segments; cited from earlier work
Klebsiella pneumoniae = settings: 40 mg/mL, locked for 21-25 h, catheter segments; cited from earlier work
S. epidermidis = settings: 40 mg/mL, locked for 21-25 h, catheter segments; cited from earlier work
P. aeruginosa = settings: 40 mg/mL, locked for 21-25 h, catheter segments; cited from earlier work

| Compound | concentration required for a 3-log reduction [1] | adverse events [2] | biofilm eradication [3] | eradication of all established biofilms [4] | biofilm colonization (E. coli) | pH [5] | biofilm eradication and microbial killing [6] | biofilm colonization (C. albicans) | biofilm colonization (Klebsiella pneumoniae) | biofilm colonization (S. epidermidis) | biofilm colonization (P. aeruginosa) |
| --- | --- | --- | --- | --- | --- | --- | --- | --- | --- | --- | --- |
| CCO [ET, ethanol] | ≥ 60% | breaches in catheter integrity, systemic toxicity, and protein precipitation causing intraluminal occlusions | failed to eradicate the preformed biofilms | able to eradicate all established biofilms |  |  |  |  |  |  |  |
| O=C(O)CN(CCN(CC(=O)O)CC(=O)O)CC(=O)O.[Na].[Na].[Na].[Na] [TE, tetrasodium ethylenediaminetetraacetic acid] |  |  | failed to eradicate the preformed biofilms | able to eradicate all established biofilms | reduced biofilm colonization | ~ 11.0 | biofilm eradication and microbial killing ability | reduced biofilm colonization | reduced biofilm colonization | reduced biofilm colonization | reduced biofilm colonization |
